Reference: patent US9682995B2, “Amino-substituted isothiazoles” (BAYER PHARMA AKTIENGESELLSCHAFT, priority 2013, dated 2017)

How the values were obtained:
Experiment in all cases: Kinase Profiling (KINOMEscan)
Assay type in all cases: binding
[1] = target: 456 kinases (of these 395 non-mutant kinases) (Homo sapiens, UniProt P10721); details: 10 μM
[2] = target: 456 kinases (of these 395 non-mutant kinases) (Homo sapiens, UniProt P00519, F317L); details: 10 μM
[3] = target: 456 kinases (of these 395 non-mutant kinases) (Homo sapiens, UniProt P21802); details: FGFR2; 10 μM
456 kinases (of these 395 non-mutant kinases) (Homo sapiens, UniProt P21802), sequence (P21802 22-821 limits assumed, change not shown): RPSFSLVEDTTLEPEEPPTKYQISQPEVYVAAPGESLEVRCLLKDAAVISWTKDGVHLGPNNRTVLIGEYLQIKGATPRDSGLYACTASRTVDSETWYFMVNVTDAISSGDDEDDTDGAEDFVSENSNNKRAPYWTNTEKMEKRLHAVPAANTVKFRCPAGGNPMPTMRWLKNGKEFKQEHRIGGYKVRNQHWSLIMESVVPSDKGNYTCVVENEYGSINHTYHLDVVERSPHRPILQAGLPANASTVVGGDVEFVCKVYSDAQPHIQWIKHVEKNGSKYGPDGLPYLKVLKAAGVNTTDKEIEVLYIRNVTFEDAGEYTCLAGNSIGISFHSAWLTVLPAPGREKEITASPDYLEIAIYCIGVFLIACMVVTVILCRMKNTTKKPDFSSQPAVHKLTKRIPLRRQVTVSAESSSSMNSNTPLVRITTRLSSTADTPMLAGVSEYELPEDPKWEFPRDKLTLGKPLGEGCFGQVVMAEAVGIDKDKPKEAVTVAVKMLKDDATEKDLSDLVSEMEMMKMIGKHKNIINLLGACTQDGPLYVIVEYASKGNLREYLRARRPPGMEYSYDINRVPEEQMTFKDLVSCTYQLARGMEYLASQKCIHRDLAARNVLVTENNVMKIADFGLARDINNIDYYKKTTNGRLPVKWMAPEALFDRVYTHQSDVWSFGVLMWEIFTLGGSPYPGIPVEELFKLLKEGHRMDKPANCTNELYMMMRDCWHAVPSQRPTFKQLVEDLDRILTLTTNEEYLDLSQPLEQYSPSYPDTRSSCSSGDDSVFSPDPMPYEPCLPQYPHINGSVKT

[4] = target: 456 kinases (of these 395 non-mutant kinases) (Homo sapiens, UniProt Q86Z02); details: HIPK1; 10 μM
[5] = target: 456 kinases (of these 395 non-mutant kinases) (Homo sapiens, UniProt Q00526); details: CDK3; 10 μM
[6] = target: 456 kinases (of these 395 non-mutant kinases) (Homo sapiens, UniProt P48736); details: PIK3CG; 10 μM
[7] = target: 456 kinases (of these 395 non-mutant kinases) (Homo sapiens, UniProt Q32MK0); details: MLCK; 10 μM
[8] = target: 456 kinases (of these 395 non-mutant kinases) (Homo sapiens, UniProt P50750); details: CDK9; 10 μM
[9] = target: 456 kinases (of these 395 non-mutant kinases) (Homo sapiens, UniProt Q92630); details: DYRK2; 10 μM
[10] = target: 456 kinases (of these 395 non-mutant kinases) (Homo sapiens, UniProt Q13464); details: ROCK1; 10 μM
456 kinases (of these 395 non-mutant kinases) (Homo sapiens, UniProt Q13464), sequence (Q13464 2-1354 limits assumed, change not shown): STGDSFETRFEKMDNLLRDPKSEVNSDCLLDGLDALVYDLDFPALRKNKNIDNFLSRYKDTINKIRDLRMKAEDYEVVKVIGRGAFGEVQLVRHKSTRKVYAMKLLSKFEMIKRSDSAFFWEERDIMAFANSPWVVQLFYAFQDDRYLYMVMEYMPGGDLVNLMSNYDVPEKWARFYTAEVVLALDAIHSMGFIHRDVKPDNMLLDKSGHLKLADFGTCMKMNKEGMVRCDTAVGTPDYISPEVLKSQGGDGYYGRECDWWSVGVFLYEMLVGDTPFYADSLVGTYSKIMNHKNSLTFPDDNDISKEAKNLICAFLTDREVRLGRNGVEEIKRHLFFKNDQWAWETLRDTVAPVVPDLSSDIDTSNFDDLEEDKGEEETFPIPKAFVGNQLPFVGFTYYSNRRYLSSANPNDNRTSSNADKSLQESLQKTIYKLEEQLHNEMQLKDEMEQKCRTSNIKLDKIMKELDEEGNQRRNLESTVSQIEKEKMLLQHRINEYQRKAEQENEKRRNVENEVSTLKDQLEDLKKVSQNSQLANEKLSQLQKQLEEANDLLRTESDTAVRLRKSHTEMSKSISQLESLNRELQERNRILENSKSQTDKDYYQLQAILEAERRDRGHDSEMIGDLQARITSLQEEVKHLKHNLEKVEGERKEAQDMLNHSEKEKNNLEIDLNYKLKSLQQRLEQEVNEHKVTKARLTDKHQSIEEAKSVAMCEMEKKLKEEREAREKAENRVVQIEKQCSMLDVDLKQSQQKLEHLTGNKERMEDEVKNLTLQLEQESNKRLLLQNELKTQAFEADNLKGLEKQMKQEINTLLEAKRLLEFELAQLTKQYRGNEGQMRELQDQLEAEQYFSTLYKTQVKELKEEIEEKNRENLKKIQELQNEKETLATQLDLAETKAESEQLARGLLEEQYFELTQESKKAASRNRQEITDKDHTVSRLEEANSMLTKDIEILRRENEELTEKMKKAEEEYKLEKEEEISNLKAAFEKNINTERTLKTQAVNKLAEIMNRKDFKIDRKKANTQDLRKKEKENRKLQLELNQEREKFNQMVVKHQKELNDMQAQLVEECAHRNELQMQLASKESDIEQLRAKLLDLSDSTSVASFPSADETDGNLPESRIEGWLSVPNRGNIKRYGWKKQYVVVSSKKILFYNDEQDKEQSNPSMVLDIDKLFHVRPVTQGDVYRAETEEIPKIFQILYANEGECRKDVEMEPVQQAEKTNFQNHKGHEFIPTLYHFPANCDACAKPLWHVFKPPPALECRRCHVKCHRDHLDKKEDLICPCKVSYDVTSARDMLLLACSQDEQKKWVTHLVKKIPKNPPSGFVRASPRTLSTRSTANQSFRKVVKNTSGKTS

[11] = target: 456 kinases (of these 395 non-mutant kinases) (Homo sapiens, UniProt P0C1S8); details: WEE2; 10 μM
[12] = target: 456 kinases (of these 395 non-mutant kinases) (Homo sapiens, UniProt Q16620); details: TRKB; 10 μM
456 kinases (of these 395 non-mutant kinases) (Homo sapiens, UniProt Q16620), sequence (Q16620 32-822 limits assumed, change not shown): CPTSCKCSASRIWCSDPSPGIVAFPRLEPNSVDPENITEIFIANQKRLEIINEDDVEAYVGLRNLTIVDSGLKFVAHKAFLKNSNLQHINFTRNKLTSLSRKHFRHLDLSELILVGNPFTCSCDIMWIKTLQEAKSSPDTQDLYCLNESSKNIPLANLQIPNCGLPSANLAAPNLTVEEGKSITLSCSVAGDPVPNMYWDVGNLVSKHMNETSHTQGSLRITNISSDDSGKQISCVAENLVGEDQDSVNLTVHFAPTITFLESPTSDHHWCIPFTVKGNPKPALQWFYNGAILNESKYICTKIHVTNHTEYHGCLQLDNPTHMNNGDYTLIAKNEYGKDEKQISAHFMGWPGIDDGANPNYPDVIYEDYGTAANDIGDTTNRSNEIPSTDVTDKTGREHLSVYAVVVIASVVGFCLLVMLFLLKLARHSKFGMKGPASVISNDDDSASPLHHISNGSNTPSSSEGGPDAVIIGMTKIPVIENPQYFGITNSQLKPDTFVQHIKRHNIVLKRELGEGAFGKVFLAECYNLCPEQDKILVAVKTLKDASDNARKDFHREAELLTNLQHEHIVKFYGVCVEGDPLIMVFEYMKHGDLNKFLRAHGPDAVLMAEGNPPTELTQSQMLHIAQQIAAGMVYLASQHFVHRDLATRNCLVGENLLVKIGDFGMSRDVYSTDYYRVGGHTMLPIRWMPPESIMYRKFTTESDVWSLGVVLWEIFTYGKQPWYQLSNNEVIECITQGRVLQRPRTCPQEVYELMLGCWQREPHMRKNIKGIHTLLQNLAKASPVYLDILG

[13] = target: 456 kinases (of these 395 non-mutant kinases) (Homo sapiens, UniProt Q08881); details: ITK; 10 μM
[14] = target: 456 kinases (of these 395 non-mutant kinases) (Homo sapiens, UniProt Q14680); details: MELK; 10 μM
[15] = target: 456 kinases (of these 395 non-mutant kinases) (Homo sapiens, UniProt Q9HBH9); details: MKNK2; 10 μM
[16] = target: 456 kinases (of these 395 non-mutant kinases) (Homo sapiens, UniProt O60331); details: PIP5K1C; 10 μM
[17] = target: 456 kinases (of these 395 non-mutant kinases) (Homo sapiens, UniProt P19525); details: PRKR; 10 μM
456 kinases (of these 395 non-mutant kinases) (Homo sapiens, UniProt P19525), sequence (P19525 2-551 limits assumed, change not shown): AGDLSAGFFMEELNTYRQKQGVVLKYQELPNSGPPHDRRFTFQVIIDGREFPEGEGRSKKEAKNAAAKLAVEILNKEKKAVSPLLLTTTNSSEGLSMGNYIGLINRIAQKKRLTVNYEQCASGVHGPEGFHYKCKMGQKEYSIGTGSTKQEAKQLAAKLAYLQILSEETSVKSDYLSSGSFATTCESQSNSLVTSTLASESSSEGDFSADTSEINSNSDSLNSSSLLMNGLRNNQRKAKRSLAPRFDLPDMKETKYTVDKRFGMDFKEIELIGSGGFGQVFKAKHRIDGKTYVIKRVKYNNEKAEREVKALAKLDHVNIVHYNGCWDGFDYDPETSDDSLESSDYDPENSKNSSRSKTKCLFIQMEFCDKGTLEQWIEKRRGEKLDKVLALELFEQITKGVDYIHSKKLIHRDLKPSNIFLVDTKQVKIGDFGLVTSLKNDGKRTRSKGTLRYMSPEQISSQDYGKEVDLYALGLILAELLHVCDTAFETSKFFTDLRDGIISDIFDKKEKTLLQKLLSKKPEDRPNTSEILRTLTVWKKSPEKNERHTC

[18] = target: 456 kinases (of these 395 non-mutant kinases) (Homo sapiens, UniProt Q9BWU1); details: CDK11; 10 μM
[19] = target: 456 kinases (of these 395 non-mutant kinases) (Homo sapiens, UniProt P00533, L858R); details: EGFR(L858R); 10 μM
[20] = target: 456 kinases (of these 395 non-mutant kinases) (Homo sapiens, UniProt Q8N752); details: CSNK1A1L; 10 μM
[21] = target: 456 kinases (of these 395 non-mutant kinases) (Homo sapiens, UniProt P16591); details: FER; 10 μM
[22] = target: 456 kinases (of these 395 non-mutant kinases) (Homo sapiens, UniProt P51813); details: BMX; 10 μM
[23] = target: 456 kinases (of these 395 non-mutant kinases) (Homo sapiens, UniProt P49759); details: CLK1; 10 μM
[24] = target: 456 kinases (of these 395 non-mutant kinases) (Homo sapiens, UniProt Q9UBE8); details: NLK; 10 μM
[25] = target: 456 kinases (of these 395 non-mutant kinases) (Homo sapiens, UniProt O43318); details: TAK1; 10 μM
[26] = target: 456 kinases (of these 395 non-mutant kinases) (Homo sapiens, UniProt Q86UX6); details: YANK3; 10 μM
[27] = target: 456 kinases (of these 395 non-mutant kinases) (Homo sapiens, UniProt P49336); details: CDK8; 10 μM
[28] = target: 456 kinases (of these 395 non-mutant kinases) (Homo sapiens, UniProt Q8TBX8); details: PIP5K2C; 10 μM
456 kinases (of these 395 non-mutant kinases) (Homo sapiens, UniProt Q8TBX8), sequence (Q8TBX8 2-421 limits assumed, change not shown): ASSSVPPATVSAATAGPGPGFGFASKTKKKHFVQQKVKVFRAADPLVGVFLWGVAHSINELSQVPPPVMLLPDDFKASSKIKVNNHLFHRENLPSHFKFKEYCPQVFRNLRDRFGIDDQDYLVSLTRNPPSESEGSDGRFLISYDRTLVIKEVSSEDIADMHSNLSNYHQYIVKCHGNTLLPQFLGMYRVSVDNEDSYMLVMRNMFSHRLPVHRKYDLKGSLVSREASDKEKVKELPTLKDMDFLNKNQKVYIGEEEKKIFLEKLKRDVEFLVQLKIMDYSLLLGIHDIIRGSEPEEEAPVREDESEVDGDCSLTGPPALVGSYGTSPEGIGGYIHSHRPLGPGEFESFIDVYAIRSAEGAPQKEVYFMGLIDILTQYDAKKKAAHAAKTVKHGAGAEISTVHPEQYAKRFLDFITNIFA

[29] = target: 456 kinases (of these 395 non-mutant kinases) (Homo sapiens, UniProt P78362); details: SRPK2; 10 μM
[30] = target: 456 kinases (of these 395 non-mutant kinases) (Homo sapiens, UniProt O94768); details: DRAK2; 10 μM
[31] = target: 456 kinases (of these 395 non-mutant kinases) (Homo sapiens, UniProt Q86Y07); details: VRK2; 10 μM
[32] = target: 456 kinases (of these 395 non-mutant kinases) (Homo sapiens, UniProt O15530); details: PDPK1; 10 μM

456 kinases (of these 395 non-mutant kinases) (Homo sapiens, UniProt P10721), sequence (P10721 26-976 limits assumed, stated change not applied): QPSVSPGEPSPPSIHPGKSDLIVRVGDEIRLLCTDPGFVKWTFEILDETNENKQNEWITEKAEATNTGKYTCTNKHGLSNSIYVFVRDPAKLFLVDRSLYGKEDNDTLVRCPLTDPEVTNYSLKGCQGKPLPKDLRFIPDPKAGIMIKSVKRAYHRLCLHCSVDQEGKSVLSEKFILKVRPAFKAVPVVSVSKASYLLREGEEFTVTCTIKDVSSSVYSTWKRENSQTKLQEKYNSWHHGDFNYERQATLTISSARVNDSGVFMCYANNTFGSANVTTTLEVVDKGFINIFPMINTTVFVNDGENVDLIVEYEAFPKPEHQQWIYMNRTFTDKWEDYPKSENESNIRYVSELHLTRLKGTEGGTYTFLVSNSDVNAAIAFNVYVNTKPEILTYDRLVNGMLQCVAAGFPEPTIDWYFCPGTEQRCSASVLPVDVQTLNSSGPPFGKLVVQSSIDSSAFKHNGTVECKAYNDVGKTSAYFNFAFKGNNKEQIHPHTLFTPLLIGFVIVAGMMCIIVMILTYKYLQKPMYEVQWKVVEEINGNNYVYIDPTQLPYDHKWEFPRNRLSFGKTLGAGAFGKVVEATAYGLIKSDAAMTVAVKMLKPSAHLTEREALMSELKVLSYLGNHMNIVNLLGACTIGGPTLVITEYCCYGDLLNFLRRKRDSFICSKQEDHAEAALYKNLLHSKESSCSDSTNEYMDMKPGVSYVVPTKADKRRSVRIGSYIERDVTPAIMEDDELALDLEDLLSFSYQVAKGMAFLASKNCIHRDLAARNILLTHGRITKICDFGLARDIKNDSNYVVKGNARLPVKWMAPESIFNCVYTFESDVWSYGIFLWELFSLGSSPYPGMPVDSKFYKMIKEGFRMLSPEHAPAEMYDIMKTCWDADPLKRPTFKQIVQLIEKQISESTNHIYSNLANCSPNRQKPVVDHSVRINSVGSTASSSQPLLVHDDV

CCc1ccccc1NC(=O)c1c(C)nsc1Nc1cnc2cc(F)ccc2n1 [Example 20, N-(2-Ethylphenyl)-5-[(6-fluoroquinoxalin-2-yl)amino]-3-methyl-1,2-thiazole-4-carboxamide] was tested. Which “% Ctrl @ 10 μM” value ([1]; KIT-autoinhibited) did it give?
The value was 100 % Ctrl.

And the “% Ctrl @ 10 μM” value ([1]; KIT)?
Its value is 98 % Ctrl.

And the “% Ctrl @ 10 μM” value ([2]; ABL1(F317L)-nonphosphorylated)?
The value was 100 % Ctrl.

And the “% Ctrl @ 10 μM” value ([2]; ABL1(F317L)-phosphorylated)?
Its value is 100 % Ctrl.

What about the “% Ctrl @ 10 μM” value [3] of the same molecule?
Its value is 80 % Ctrl.

What about the “% Ctrl @ 10 μM” value [4] of the same molecule?
Its value is 100 % Ctrl.

And the “% Ctrl @ 10 μM” value [5]?
The value was 100 % Ctrl.

What about the “% Ctrl @ 10 μM” value [6] of the same molecule?
The value was 99 % Ctrl.

What about the “% Ctrl @ 10 μM” value [7] of the same molecule?
The value was 88 % Ctrl.

What about the “% Ctrl @ 10 μM” value [8] of the same molecule?
The value was 100 % Ctrl.

And the “% Ctrl @ 10 μM” value [9]?
The value was 96 % Ctrl.

And the “% Ctrl @ 10 μM” value [10]?
Its value is 81 % Ctrl.

And the “% Ctrl @ 10 μM” value [11]?
The value was 100 % Ctrl.

And the “% Ctrl @ 10 μM” value [12]?
The value was 90 % Ctrl.

What about the “% Ctrl @ 10 μM” value [13] of the same molecule?
Its value is 100 % Ctrl.

And the “% Ctrl @ 10 μM” value [14]?
Its value is 100 % Ctrl.

And the “% Ctrl @ 10 μM” value [15]?
Its value is 100 % Ctrl.

And the “% Ctrl @ 10 μM” value [16]?
The value was 100 % Ctrl.

What about the “% Ctrl @ 10 μM” value [17] of the same molecule?
Its value is 100 % Ctrl.

And the “% Ctrl @ 10 μM” value [18]?
Its value is 100 % Ctrl.

What about the “% Ctrl @ 10 μM” value [19] of the same molecule?
Its value is 96 % Ctrl.

What about the “% Ctrl @ 10 μM” value [20] of the same molecule?
Its value is 100 % Ctrl.

What about the “% Ctrl @ 10 μM” value [21] of the same molecule?
Its value is 100 % Ctrl.

And the “% Ctrl @ 10 μM” value [22]?
The value was 95 % Ctrl.

And the “% Ctrl @ 10 μM” value [23]?
The value was 58 % Ctrl.

What about the “% Ctrl @ 10 μM” value [24] of the same molecule?
Its value is 100 % Ctrl.

And the “% Ctrl @ 10 μM” value [25]?
Its value is 100 % Ctrl.

And the “% Ctrl @ 10 μM” value [26]?
Its value is 67 % Ctrl.

And the “% Ctrl @ 10 μM” value [27]?
The value was 100 % Ctrl.

And the “% Ctrl @ 10 μM” value [28]?
The value was 100 % Ctrl.

What about the “% Ctrl @ 10 μM” value [29] of the same molecule?
Its value is 100 % Ctrl.

What about the “% Ctrl @ 10 μM” value [30] of the same molecule?
Its value is 93 % Ctrl.

And the “% Ctrl @ 10 μM” value [31]?
The value was 100 % Ctrl.

And the “% Ctrl @ 10 μM” value [32]?
The value was 86 % Ctrl.
